According to the supplement of paper PMC12317010:
Where a name gives a salt, the structure may show the parent alone.

Experiment: collision cross section in nitrogen (drift tube, single-field); higher = larger gas-phase ion size
[1] = ion type: [M+H], ion source: APCI, ion mode: Positive
[2] = ion type: [M+H], ion source: ESI, ion mode: Positive
[3] = ion type: [M+Na], ion source: ESI, ion mode: Positive
[4] = ion type: [M-H], ion source: ESI, ion mode: Negative
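Further: chemical standards at 10 µM analysed by drift tube IMS-QTOF MS in about 3.95 torr nitrogen, mean of duplicate injections differing ≤1%, mass error below 10 ppm.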

collision cross section in nitrogen [1] [Å²]	collision cross section in nitrogen [2] [Å²]	collision cross section in nitrogen [3] [Å²]	collision cross section in nitrogen [4] [Å²]	collision cross section in nitrogen (ion type: [M+], ion source: APCI, ion mode: Positive) [Å²]	Structure (SMILES)
131.8	131.6	145.7	–	–	c1cnc2c(c1)ccc1cccnc12 [1,10-Phenanthroline hydrochloride hydrate]
196.9	197	198.8	–	–	CCN(CC)CCNc1ccc(CNC=O)c2sc3ccc(OC)cc3c(=O)c12
–	–	209.9	–	–	CCCCCCCOC(=O)c1ccccc1C(=O)OCCCCCCC [Diheptyl phthalate]
136.5	136.5	–	123.6	–	O=[N+]([O-])c1ccc2[nH]cnc2c1 [6-Nitrobenzimidazole]
191.5	193.1	194.4	–	–	Cc1ccc(C2OC[C@@H]3OC(c4ccc(C)cc4)O[C@H]([C@H](O)CO)[C@@H]3O2)cc1 (stereo partly drawn) [Di-p-methylbenzylidenesorbitol]
176	175.7	177.8	–	–	O=C(/C=C/C=C/c1ccc2c(c1)OCO2)N1CCCCC1 [Piperine]
133.5	135.1	–	–	–	CC1(C)CC(N)CC(C)(C)N1 [2,2,6,6-Tetramethylpiperidin-4-amine]
172.4	172.5	182.7	176.3	–	CN(CCOc1ccc(CC2SC(=O)NC2=O)cc1)c1ccccn1 (stereo not drawn) [Rosiglitazone maleate]
–	–	–	157.1	–	O=C1c2cccc(O)c2C(=O)c2c(O)cc(CO)cc21 [Aloe-emodin]
–	–	214.4	–	–	CCCCC(CC)C(=O)OCCOCCOCCOCCOC(=O)C(CC)CCCC (stereo not drawn) [Tetraethylene glycol di(2-ethylhexanoate)]
–	–	–	149.7	–	CCCCCCOC(=O)CCC [Hexyl butyrate]
–	–	167.4	–	–	CCNC(=O)[C@@H](C)OC(=O)Nc1ccccc1 [Carbetamide]
177.3	177	196.3	178.7	–	CC(C)c1nnc2ccc(-c3ocnc3-c3cc(F)ccc3F)cn12
186.4	186.4	194.8	–	–	CCN(C(=O)c1cc(C)cc(OC[C@H](C)Nc2ccncc2)c1)C(C)C
–	–	–	177.1	–	CC(=O)c1c(O)c(C)c(O)c2c1OC1=CC(=O)C(C(C)=O)C(=O)C12C (stereo not drawn) [Usnic acid]
–	–	165.5	–	–	NC(=O)N(O)[C@@H]1COc2cc(OCc3ccccc3)ccc21

collision cross section in nitrogen [1] [Å²]	collision cross section in nitrogen [2] [Å²]	collision cross section in nitrogen [3] [Å²]	collision cross section in nitrogen [4] [Å²]	collision cross section in nitrogen (ion type: [M+], ion source: APCI, ion mode: Positive) [Å²]	Structure (SMILES)
–	153.5	–	–	–	C(=C(c1ccccc1)c1ccccc1)c1ccccc1 [Triphenylethylene]
–	179.8	–	181.8	–	O=S1(=O)OC(c2ccc(O)cc2)(c2ccc(O)cc2)c2ccccc21 [Phenol Red sodium salt]
188.5	188.8	189.8	–	–	CCN(CCC#N)c1ccc(N=Nc2ccc([N+](=O)[O-])cc2)cc1 [C.I. Disperse Orange 25]
–	–	–	136.1	–	O=C(O)C1CCC(C(=O)O)CC1 (stereo not drawn) [1,4-Cyclohexanedicarboxylic acid]
161.7	160.7	185.7	–	–	O=c1cc(-c2ccccc2)oc2c1ccc1ccccc12 [alpha-Naphthoflavone]
229.8	230.3	232.2	228.6	224.3	CC(C)c1c(C(=O)Nc2ccccc2)c(-c2ccccc2)c(-c2ccc(F)cc2)n1CC[C@@H](O)C[C@@H](O)CC(=O)O [Atorvastatin calcium]
147.7	–	160.6	148.8	–	CC(=O)CC(=O)Nc1ccc(C)cc1C [N-(2,4-Dimethylphenyl)-3-oxobutanamide]
136.5	137.2	–	–	–	CN1CCC[C@H]1c1cccnc1 [(-)-Nicotine]
152.1	152.5	166.2	–	–	Cc1c(N(C)C)c(=O)n(-c2ccccc2)n1C [4-Dimethylaminoantipyrine]
175.7	175.2	176.8	–	–	CC(CCc1ccccc1)NCC(O)c1ccc(O)c(C(N)=O)c1 (stereo not drawn) [Labetalol hydrochloride]
207	206.7	206.2	210.8	–	COc1ccc(C(=O)Nc2nc3ccccc3c(NCc3ccccc3)c2C#N)cc1
–	–	–	140.8	–	CC(C)NC(=O)c1ccccc1N [2-Amino-N-(1-methylethyl)benzamide]
–	–	189.7	178.6	–	CCCCCC[C@@H](O)C/C=C\CCCCCCCC(=O)O [(9Z,12R)-12-Hydroxyoctadec-9-enoic acid]
–	–	–	150.3	–	O=C(Oc1ccccc1)c1ccc(O)cc1 [Phenylparaben]
118.6	119.5	–	–	–	Cc1cccc(N)n1 [6-Methylpyridin-2-amine]

Structure (SMILES)	collision cross section in nitrogen [1] [Å²]	collision cross section in nitrogen [2] [Å²]	collision cross section in nitrogen [3] [Å²]	collision cross section in nitrogen [4] [Å²]	collision cross section in nitrogen (ion type: [M+], ion source: APCI, ion mode: Positive) [Å²]
CSc1nc(N=[N+]=[N-])nc(NC(C)C)n1 [Aziprotryne]	149.1	148.9	–	–	–
COP(=S)(OC)Oc1ccc(S(=O)(=O)N(C)C)cc1 [Famphur]	174	–	173.8	–	–
CCCCCCOC(=O)c1ccccc1C(=O)OCCCCCC [Dihexyl phthalate]	–	–	202.6	–	–
CCC(C)c1cccc(C(C)CC)c1O (stereo not drawn) [2,6-Di(butan-2-yl)phenol]	–	–	–	151.4	–
C=C(C)[C@H]1Cc2c(ccc3c2O[C@@H]2COc4cc(OC)c(OC)cc4[C@@H]2C3=O)O1 [Rotenone]	–	194.8	207.3	199	–
O=[N+]([O-])O [Copper(II) nitrate trihydrate]	–	–	–	104.1	–
O=P1(N(CCCl)CCCl)NCCCO1 (stereo not drawn) [Cyclophosphamide]	147.8	147.7	154.6	–	–
O=C(O)c1ccccc1C(=O)Nc1cccc2ccccc12 [Naptalam]	–	–	170.9	168.6	–
C[C@]12CCC(=O)C=C1CC[C@@H]1[C@@H]2CC[C@@]2(C)[C@H]1CC[C@]2(C)O [17-Methyltestosterone]	–	177.6	–	–	–
CCC(C)(NC(=O)c1cc(Cl)c(C)c(Cl)c1)C(=O)CCl (stereo not drawn) [Zoxamide]	–	175.9	188	–	–
Cn1cc(-c2ccccc2)c(=O)c(-c2cccc(C(F)(F)F)c2)c1 [1-Methyl-3-phenyl-5-(3-(trifluoromethyl)phenyl)-4-pyridone]	179.6	179.8	187.5	178.9	–
